From a melting point compilation (Tetko et al.; mined from patent text by program, amines drawn as free bases though some values may be those of a salt)

Compound | melting point
CSCc1cc(N)ccc1N1C(=O)c2ccc(Cl)cc2C1=O | 134 to 137 °C
CNC(=O)C1Cc2c(n(C)c3ccc(OC)cc23)C1 (configuration not stated) | 164 to 165 °C
C#Cc1cccc(Nc2ncnc3cc(OCCOC)c(OCCOC(C)=O)cc23)c1 | 84 to 87 °C
COc1ccc2c(OC(C)C)c(C(N)=O)ccc2c1 | 183 to 184 °C
CCOC(=O)C(=O)c1c[nH]c2ccc(Br)cc12 | 182 to 183 °C
CCCCCCCCCCCCCCCCOc1ccc(OCC(=O)NCCc2ccccn2)cc1 | 74 to 75 °C
C=CCNC(=O)N1CC(Sc2ccc(Cl)cc2)C1 | 88 to 89 °C
COC(=O)C(Cc1ccc(OC)c(OC)c1)NNc1ccc(C)c(C)c1 (configuration not stated) | 148 to 150 °C
CCOc1cc(I)cc(OCC)c1OCC | 44 to 46 °C
CCC1(CCCCN2CCN(c3ccc(F)cc3)CC2)C(=O)Nc2ccccc21 (configuration not stated) | 118 to 119 °C
CCCCNC(=O)ONC(=O)Cc1ccc2c(C(=O)OCC)c(N)c(C(=O)OCC)c-2cc1 | 178 to 179 °C
CCCC(=O)Nc1c(C)cccc1C | 134 to 136 °C
ICCc1ccc2c(c1)OCO2 | 36 to 38 °C
Cc1ccc(S(=O)(=O)OCC2COc3ccc4c(c3O2)CCO4)cc1 (configuration not stated) | 95 to 96 °C
CCOC(=O)Cc1csc(NC(=O)NC)n1 | 158 to 159 °C
Cc1ccc(C2=NC(C)(C(C)C)C(=O)N2)cc1 (configuration not stated) | 151 to 154 °C
O=[N+]([O-])c1cnccc1NCc1ccc(F)cc1 | 137 °C
C=CCc1cc(C(=O)OCC)ccc1O | 67 to 70 °C
CC(C)C[C@@H](C(=O)N1CCN(C(c2ccc(F)cc2)c2ccc(F)cc2)CC1)N1CCOCC1 | 55 to 63 °C
O=C1CCC(c2ccc(CCN3CCN(c4ncccn4)CC3)cc2)N1 (configuration not stated) | 182 to 183 °C
CNC(=O)[C@H](NC(=O)c1ccc(F)cc1C(F)(F)F)[C@@H](CNC(C)=O)c1ccccc1 (racemic) | 199 °C
Oc1ccc(C(O)CN2CCC(O)(c3cccc(F)c3)CC2)cc1 (configuration not stated) | 154 °C

Compound | melting point
COc1ccc(Oc2c(Cl)cc([N+](=O)[O-])cc2Cl)cc1C(C)C | 75 to 77 °C
CC(C)(O)C(=O)N[C@H]1CC[C@H](CCN2CCN(c3nccc4c3CCO4)CC2)CC1 | 201 °C
CCOC(=O)C(C)=NNc1ccc(Br)cc1 | 153 to 154 °C
OC1CSC(Oc2cc(-c3cccnc3)ccc2F)C(O)C1O (configuration not stated) | 100 °C
CC(Oc1ccc(N)c([N+](=O)[O-])c1)c1cc(F)ccc1Cl (configuration not stated) | 110 °C
CN1CCN(C(=O)c2ccccc2)C1=C(Sc1ccccc1)[N+](=O)[O-] | 175 to 178 °C
CCOC(=O)c1cn(C2CC2)c2c(F)c(F)c(F)c(CC)c2c1=O | 139 to 140 °C
O=S(=O)(c1ccc(C(CC2CCOCC2)c2ccc(-c3nnc(CO)s3)[nH]2)cc1)C1CC1 (configuration not stated) | 208 to 209 °C
CSC(CC(=O)O)c1ccncc1 (configuration not stated) | 187 to 189 °C
C=CC(=O)NCCNC(=O)C=C | 150 to 155 °C
O=C(Nc1ccc(I)cc1Cl)C(F)(F)F | 51 to 52 °C
Cc1cc(C)cc(-c2nc(CCl)co2)c1 | 76 to 77 °C
COC(=O)CCc1cnoc1-c1ccc(Cl)c(F)c1 | 53 to 54 °C
COc1ccc(NC(=O)C(C#N)C(=O)c2cccn2C)cc1 (configuration not stated) | 192 to 193 °C
CCC(N)(CC)Cc1c[nH]c2ccccc12 | 92 to 94 °C
Cc1nn(C)c2ccc(C(=O)O)c(C(=O)O)c12 | 228 to 232 °C
Cc1nc(Nc2nc3ccccc3[nH]2)nc(O)c1CC(=O)O | > 300 °C
CCCCCCC(C)(C)c1ccc(C2=CCCNC2)c(O)c1 | 122 to 123 °C
O=C(NO)OCC1c2ccccc2-c2ccccc21 | 160 °C
COc1ccc(OC)c2c1C(=O)c1c(O)c3c(c(O)c1C2=O)CC(=O)CC3 | 173 to 174 °C
CC(=O)OC1CSC(Oc2cc(Br)cnc2Cl)C(OC(C)=O)C1OC(C)=O (configuration not stated) | 143 to 147 °C
N[C@]1(C(=O)O)C=C[C@H]2[C@H](C(=O)O)[C@H]21 | > 250 °C

Compound | melting point
C=CCSc1nc(N)nc2c1ncn2[C@@H]1C[C@H](CO)[C@@H](O)C1 | 133 to 134 °C
COc1ccc2c(c1)S(=O)(=O)N=CN2CCCl | 126 to 130 °C
CN(O)C(=O)NCCc1ccc(Cl)c(Cl)c1 | 108 to 109 °C
CCC(CN1C(=O)c2ccccc2C1=O)N1CCC(c2noc3cc(F)ccc23)CC1 (configuration not stated) | 86 to 88 °C
CN1Sc2cc3c(cc2CC1=O)CCCC3 | 202 to 203 °C
CCN1CC(=O)N(c2cc(Cl)ccc2OC)C1=S | 171 to 174 °C
CCn1c(-c2ccc(OC)c(OC)c2)cc(=O)n(CC)c1=O | 104 to 107 °C
COC(=O)c1ccc(OC)c(O)c1O | 100 to 101 °C
COc1ccc(OC)c(CCC(C)(O)CC2CCCCN2)c1 (configuration not stated) | 85 to 90 °C
COc1ccc(/C=C/c2cc(OC)c(OC)c(OC)c2)cc1 | 152 to 155 °C
COc1cccc2c(C3CCN(C(=O)OC(C)(C)C)CC3)noc12 | 130 to 132 °C
CCOC(=O)C1=C(N)NC(N)=C(C(=O)OCC)C1c1ccc(SC)cc1 | 127 °C
Cc1cc([N+](=O)[O-])ccc1N=C1SCC2(CCCC2)N1CC1CCCCC1 | 85 to 87 °C
O=C(O)c1cnc(Cl)cc1C(F)(F)F | 115 to 117 °C
CN(C)C1(c2ccccn2)CCC(NCCc2c[nH]c3ccccc23)CC1 (configuration not stated) | 150 to 152 °C
O=C1CCCC(=O)C1Br | 153 to 154 °C
CC#CCCn1ncc2c(NC(=O)CC)c3c(nc21)CN(CCC)C3=O | 130 to 132 °C
COC(=O)C=C1C(=O)NC(=O)N1C | 100 °C
COc1cc2nc(N)nc(-c3ccc(O)cc3)c2cc1OC | 245 to 248 °C
NC(=O)[C@H](CO)Nc1nc(SCc2cccc(F)c2F)nc2nc(N)sc12 | 145 to 151 °C
CCNC(C)CN1CCc2c(c(=O)oc3c(OC)c(OC)ccc23)C1 (configuration not stated) | 125 to 127 °C

Second part, the compound after the results:

melting point | Compound
250 °C | CC1(C)CCC(C)(C)c2cc(-c3cc(-c4ccc(C(=O)O)cc4)ccc3OCCCCN)ccc21
174 to 176 °C | CCOC(=O)c1ccc(-c2cnc(-c3ccc(C(F)(F)F)cc3)s2)cc1
244 °C | O=C(NC(Cc1ccc(OCc2ccccc2)cc1)C(=O)O)c1cn2cc(-c3cccnc3)ccc2n1 (configuration not stated)
120 to 122 °C | CC(C)(C)OC(=O)Oc1ccc(C(C(=O)OC(c2ccccc2)c2ccccc2)N2CC(N)C2=O)cc1 (configuration not stated)
276 to 277 °C | Cc1nc2c(O)c(CC[C@@H](O)c3ccc(F)cc3)c(C(=O)N(C)C)cc2n1C
87 to 88 °C | O=S(=O)(c1ccc2ccccc2c1)N1CCOc2ccc(CCCI)cc21
141 to 142 °C | N[C@@H](Cc1ccccc1)C(O)(c1ccccc1)c1ccccc1
177 to 179 °C | CC(C)c1cccc(C(C)C)c1NC(=O)CNC(c1ccccc1)c1ccc([N+](=O)[O-])cc1 (configuration not stated)
175 to 176 °C | O=c1c2sccc2nc(CNc2ccccc2F)n1-c1ccccc1Cl
69 °C | CN(CCCCNC(=O)NCCCOc1cccc(CN2CCCCC2)c1)CCN(Cc1ccc(F)cc1)c1ccccn1
193 °C | Cc1ccccc1NC(C(=O)O)c1c(Cl)ccc(Cl)c1Cl (configuration not stated)
275 °C | Cc1ccc(N2C(=O)C(O)=C(C(=O)c3ccc(OC(F)(F)F)cc3)C2c2ccc(Cn3ccnn3)cc2)nn1 (configuration not stated)
112 to 114 °C | COc1cc(CCl)ccc1OCc1nc(-c2cccc(OS(C)(=O)=O)c2)oc1C
152 °C | Cc1c(CC(C)(C)C(=O)O)n(Cc2ccc(Cl)cc2)c2ccc(OCc3ccc4ccccc4c3)cc12
138 to 139 °C | O=C(NCCOc1ccc(CC(OCc2ccccc2)C(=O)O)cc1)c1ccc(-c2ccccn2)cc1 (configuration not stated)
196 to 198 °C | COc1ccc(C2=NN(c3ccc(C(=O)O)cc3)C(=O)C(C)(C)C2)cc1OC
93 to 100 °C | COc1cc(F)ccc1-c1ccc(S(=O)(=O)N2c3ccccc3CC2C(=O)O)cc1 (configuration not stated)
271 °C | Cc1ccc2c(c1)C=Cc1cc(C)ccc1C2c1cn(-c2ncc(C(=O)O)c(NCC(=O)O)n2)c(=O)[nH]c1=O
108 to 110 °C | CCOC(=O)c1c(C)nc2c(c1N)c1c(n2Cc2ccc(OC)cc2)CCCC1

melting point | Compound
165 to 171 °C | CC(=O)N(O)Cc1ccccc1Nc1c(Cl)cccc1Cl
114 to 116 °C | O=C(CCOc1ccc(Cl)cc1)NCCCn1ccnc1
67 to 69 °C | COc1cccc(CC(c2ccccc2)N(CCO)CCO)c1 (configuration not stated)
117 °C | CCCOc1cc(OC)cc(O)c1C(=O)C=Cc1ccc(OC)cc1
280 °C | O=C(Nc1ccc(S(=O)(=O)Nc2ncccn2)cc1)c1ccccc1SSc1ccccc1C(=O)Nc1ccc(S(=O)(=O)Nc2ncccn2)cc1
134 °C | CC(=O)Nc1ccc2cccc(Oc3cc(N4CCN([C@H](C)c5ccc(F)cc5)CC4)ncn3)c2n1
89 to 91 °C | O=C(O)CCc1cc(C(c2cc(F)ccc2F)S(=O)(=O)c2ccc(Cl)cc2)c(F)cn1 (configuration not stated)
171 to 172 °C | Cn1cc(-c2cc3cccnc3[nH]2)c2cc(C(=O)NCC(O)CO)ccc21 (configuration not stated)
151 to 153 °C | O=[N+]([O-])c1ccc(Cl)cc1Sc1cccc2cnccc12
143 to 145 °C | CCc1ccc(-c2cn(C)cc(-c3ccccc3)c2=O)cc1
79.8 °C | CCCn1c(-c2ccccc2)nc2cc(C(=O)OC)ccc21
174 to 177 °C | O=C(Nc1ccccc1)c1cccc(NC(=S)Nc2cc(Cl)cc(Cl)c2)c1
181 to 183 °C | COCc1nc2c(C(=O)c3cccnc3Oc3cccc(Cl)c3)ccc(OC)c2[nH]1
218 °C | Cc1oc(-c2ccccc2)nc1C(O)COc1ccc(C=C2SC(=S)NC2=O)nc1 (configuration not stated)
81 to 82 °C | O=C(O)CCCc1ccc(-c2ccc(F)cc2Cl)cc1
235 °C | N#Cc1ccc2c(OCc3ccccc3)cc(C(=O)O)cc2c1
161 to 162 °C | Cc1c(NC(=O)c2ccc(OC[C@@H]3CCCO3)cc2)ccc2cc(CNCC3CCOCC3)[nH]c12
164 °C | O=C(O)c1ccccc1Oc1ccc(C(F)(F)F)cc1NS(=O)(=O)c1ccc(Cl)cc1
